Test results: article PMC7903134, “Human glucocerebrosidase mediates formation of xylosyl-cholesterol by β-xylosidase and transxylosidase reactions” (Journal of Lipid Research, 2021)

Tests used:
[1] = target: T1, glucocerebrosidase (GBA) (Mus musculus, UniProt P17439); experiment: irreversible GBA inhibition in RAW264.[…] cells ([…]); xylosylated cholesterol by LC-MS/MS; type: cell-based
T1 construct: gene Gba1; endogenous GBA in RAW264.7 cells
T1 sequence (P17439 20-515): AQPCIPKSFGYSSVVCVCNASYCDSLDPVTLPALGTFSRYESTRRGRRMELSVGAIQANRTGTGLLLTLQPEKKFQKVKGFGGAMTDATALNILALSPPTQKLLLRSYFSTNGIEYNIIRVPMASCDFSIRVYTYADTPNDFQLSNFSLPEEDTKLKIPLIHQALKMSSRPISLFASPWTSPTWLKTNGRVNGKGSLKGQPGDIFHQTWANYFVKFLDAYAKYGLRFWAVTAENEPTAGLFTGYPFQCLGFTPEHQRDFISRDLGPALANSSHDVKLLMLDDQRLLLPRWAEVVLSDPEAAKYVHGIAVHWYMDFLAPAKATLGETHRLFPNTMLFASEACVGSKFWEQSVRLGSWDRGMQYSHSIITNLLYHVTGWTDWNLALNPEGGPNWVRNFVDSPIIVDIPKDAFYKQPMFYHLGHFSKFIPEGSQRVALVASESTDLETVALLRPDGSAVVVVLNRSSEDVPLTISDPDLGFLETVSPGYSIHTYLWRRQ

[2] = target: T2, glucocerebrosidase (GBA), recombinant human (rhGBA, Cerezyme) (Homo sapiens, UniProt P04062); experiment: fluorogenic 4-MU-β-Xyl ([…]) and 4-MU-β-Glc ([…]) hydrolysis after […] min preincubation; type: biochemical
T2 construct: gene GBA1
T2 sequence (P04062 40-536): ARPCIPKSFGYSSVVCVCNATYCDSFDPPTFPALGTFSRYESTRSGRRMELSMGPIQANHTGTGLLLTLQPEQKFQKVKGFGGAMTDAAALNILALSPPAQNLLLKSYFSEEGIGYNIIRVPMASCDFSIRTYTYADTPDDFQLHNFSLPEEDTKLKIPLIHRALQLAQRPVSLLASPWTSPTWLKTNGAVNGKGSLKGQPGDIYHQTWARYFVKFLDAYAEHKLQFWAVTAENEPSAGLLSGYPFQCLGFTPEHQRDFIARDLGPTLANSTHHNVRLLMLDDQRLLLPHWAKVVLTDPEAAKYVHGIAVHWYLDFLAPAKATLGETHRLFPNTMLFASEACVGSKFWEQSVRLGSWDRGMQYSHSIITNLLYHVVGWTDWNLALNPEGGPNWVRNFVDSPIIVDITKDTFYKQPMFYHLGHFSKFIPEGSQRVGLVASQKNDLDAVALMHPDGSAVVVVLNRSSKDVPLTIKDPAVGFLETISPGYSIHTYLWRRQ

[3] = target: T3, glucosylceramide synthase (GCS) (Homo sapiens, UniProt Q16739); experiment: XylCer formation in lysates of HeLa, GCS KO and GCS-reexpressing cells, LC-MS/MS; type: cell-based
T3 construct: gene UGCG; GCS overexpressed in HeLa GCS KO cells, lysate
T3 sequence (Q16739 1-394): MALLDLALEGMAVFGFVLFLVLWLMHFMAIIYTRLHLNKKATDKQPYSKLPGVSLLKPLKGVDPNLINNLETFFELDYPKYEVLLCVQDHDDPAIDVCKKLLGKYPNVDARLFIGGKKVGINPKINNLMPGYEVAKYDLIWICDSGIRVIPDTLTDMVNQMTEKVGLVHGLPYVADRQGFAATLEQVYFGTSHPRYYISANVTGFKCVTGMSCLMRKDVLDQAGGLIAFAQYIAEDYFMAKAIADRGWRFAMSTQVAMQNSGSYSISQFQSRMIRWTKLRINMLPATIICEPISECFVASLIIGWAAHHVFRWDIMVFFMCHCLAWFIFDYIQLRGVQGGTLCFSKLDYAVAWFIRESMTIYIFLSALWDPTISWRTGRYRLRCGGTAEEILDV
From the text: formation in lysates of HeLa, GCS KO and GCS-reexpressing cells, LC-MS/MS on glucosylceramide synthase (GCS) | Expression of GCS in the GCS KO cells reinstalled their ability to produce […]

[4] = target: T2, glucocerebrosidase (GBA), recombinant human (rhGBA, Cerezyme); experiment: transxylosylation/transglucosylation acceptor, LC-MS/MS of products; type: biochemical
[5] = target: T4, GBA3 (Homo sapiens, UniProt Q9H227); experiment: hydrolysis and transxylosylation in lysates of GBA3-overexpressing HEK293 cells; type: cell-based
T4 construct: GBA3 overexpressed in HEK293 cells, lysate
T4 sequence (Q9H227 1-469): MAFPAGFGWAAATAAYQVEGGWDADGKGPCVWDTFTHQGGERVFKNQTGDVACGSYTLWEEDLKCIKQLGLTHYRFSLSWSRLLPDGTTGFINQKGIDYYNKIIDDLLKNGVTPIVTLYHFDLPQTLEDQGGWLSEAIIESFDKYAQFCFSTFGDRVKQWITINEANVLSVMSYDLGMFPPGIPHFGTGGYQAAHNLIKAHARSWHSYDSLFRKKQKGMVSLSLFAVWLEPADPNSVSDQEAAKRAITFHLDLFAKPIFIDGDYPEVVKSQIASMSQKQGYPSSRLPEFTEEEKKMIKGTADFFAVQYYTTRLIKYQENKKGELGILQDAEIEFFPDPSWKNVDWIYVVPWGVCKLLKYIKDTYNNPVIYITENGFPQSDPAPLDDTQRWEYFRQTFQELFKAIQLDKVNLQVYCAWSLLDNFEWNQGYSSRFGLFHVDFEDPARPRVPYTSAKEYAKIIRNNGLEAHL

For O[C@H]1[C@H](O)[C@@H](O)[C@@H]2O[C@@H]2[C@@H]1O [conduritol B-epoxide, L-1,2-anhydro-myo-inositol], the “irreversible GBA inhibition in RAW264.7 cells (300 μM); xylosylated cholesterol” value [1] was “formation was prohibited by prior inhibition of GBA with CBE”.

In the case of OC[C@@H]1[C@@H](O)[C@H](O)[C@@H](O)[C@@H]2O[C@H]12 [cyclophellitol], the IC50 [2] is reported as 61 nM.

O=c1ccn([C@@H]2O[C@H](COP(=O)(O)OP(=O)(O)O[C@H]3OC[C@@H](O)[C@H](O)[C@H]3O)[C@@H](O)[C@H]2O)c(=O)[nH]1 [UDP-Xyl] was tested, and the “XylCer formation in lysates of HeLa, GCS KO and GCS-reexpressing cells, LC-MS/MS” value [3] was “Expression of GCS in the GCS KO cells reinstalled their ability to produce XylCer”.

With CC(C)CCC[C@@H](C)[C@H]1CC[C@H]2[C@@H]3CC=C4C[C@@H](O)CC[C@]4(C)[C@H]3CC[C@]12C [cholesterol] the “transxylosylation/transglucosylation acceptor, LC-MS/MS of products” value [4] was “we used natural cholesterol as the acceptor and 4-MU-β-Xyl as the donor”.

In the case of Cc1cc(=O)oc2cc(O[C@@H]3OC[C@@H](O)[C@H](O)[C@H]3O)ccc12 [4-methylumbelliferyl β-D-xyloside], the “hydrolysis and transxylosylation in lysates of GBA3-overexpressing HEK293 cells” value [5] is reported as “GBA3, albeit less prominent than GBA, was found to be able to hydrolyze 4-MU-β-Xyl”.
